Experimental data reported in PubChem BioAssay (NCI).
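Abbreviation: GI50, concentration required for 50% inhibition of growth. Definition used: TGI = concentration required for complete inhibition of growth.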

Legend:
Assay in all cases: DTP human tumour cell line panel, 384-well format
DU-145 prostate = test system: DU-145 prostate
NCI-H23 lung = test system: NCI-H23 lung
SN12C renal = test system: SN12C renal
OVCAR-5 ovarian = test system: OVCAR-5 ovarian
SF-539 CNS = test system: SF-539 CNS
M14 melanoma = test system: M14 melanoma
NCI-H322M lung = test system: NCI-H322M lung
T-47D breast = test system: T-47D breast
MALME-3M melanoma = test system: MALME-3M melanoma
MCF7 breast = test system: MCF7 breast
CCRF-CEM leukemia = test system: CCRF-CEM leukemia
786-0 renal = test system: 786-0 renal
HOP-62 NSCLC = test system: HOP-62 NSCLC

O=c1[nH]nc2c3c(cccc13)NC(CN1Cc3ccccc3C1)=N2
GI50 (DU-145 prostate): 2.96 µM | TGI (DU-145 prostate): 24.1 µM | GI50 (NCI-H23 lung): 2.27 µM | TGI (NCI-H23 lung): 15.3 µM | GI50 (SN12C renal): 4.09 µM | TGI (SN12C renal): > 39.4 µM | GI50 (OVCAR-5 ovarian): 3.89 µM | TGI (OVCAR-5 ovarian): 22.6 µM | GI50 (SF-539 CNS): 20.9 µM | TGI (SF-539 CNS): > 100 µM | GI50 (M14 melanoma): 6.09 µM | TGI (M14 melanoma): > 100 µM | GI50 (NCI-H322M lung): 5.1 µM | TGI (NCI-H322M lung): > 45.7 µM | GI50 (T-47D breast): 22.8 µM | TGI (T-47D breast): > 100 µM | GI50 (MALME-3M melanoma): 6 µM | TGI (MALME-3M melanoma): > 100 µM | GI50 (MCF7 breast): 7.24 µM | TGI (MCF7 breast): > 100 µM | GI50 (CCRF-CEM leukemia): 3.91 µM | TGI (CCRF-CEM leukemia): 15.2 µM | GI50 (786-0 renal): 5.12 µM | TGI (786-0 renal): > 67.4 µM | GI50 (HOP-62 NSCLC): 4.06 µM | TGI (HOP-62 NSCLC): > 100 µM
